Laboratory results reported in ChEMBL document CHEMBL5036338, “Structural Insights into the Inhibition of Undecaprenyl Pyrophosphate Synthase from Gram-Positive Bacteria” (2021).
Activity calls are given as the source filed them. The calls are words filed in the database; no cut-off is given here.

How the values were obtained:
Staphylococcus aureus [1] = assay: Synergistic antibacterial activity against community acquired methicillin resistant Staphylococcus aureus USA300 incubated for 18 hrs by checkerboard broth microdilution assay; format: functional
Staphylococcus aureus [2] = assay: (§1) Synergistic antibacterial activity against community acquired methicillin resistant Staphylococcus aureus USA300 assessed as fractional inhibitory concentration incubated for 18 hrs by checkerboard broth microdilution assay; format: functional
Staphylococcus aureus [3] = assay: as §1, with “assessed as potentiation of cefuroxime-induced antibacterial activity by measuring cefuroxime fractional inhibitory” for “assessed as fractional inhibitory”; format: functional
Staphylococcus aureus [4] = assay: Synergistic antibacterial activity against community acquired methicillin resistant Staphylococcus aureus USA300 assessed as potentiation of cefuroxime-induced antibacterial activity by measuring cefuroxime MIC incubated for 18 hrs by checkerboard broth microdilution assay; format: functional
Staphylococcus aureus [5] = assay: Synergistic antibacterial activity against community acquired methicillin resistant Staphylococcus aureus USA300 assessed as fractional inhibitory concentration index in presence of cefuroxime incubated for 18 hrs by checkerboard broth microdilution assay; format: functional
Staphylococcus aureus [6] = assay: Inhibition of Staphylococcus aureus UPPS using FPP and IPP as substrates preincubated for 20 mins followed by substrate addition

Row | Compound | MIC (Staphylococcus aureus [1]) [µg/mL] | FIC (Staphylococcus aureus [2]) | FIC (Staphylococcus aureus [3]) | MIC (Staphylococcus aureus [4]) [µg/mL] | fractional inhibitory concentration index (FICI) (Staphylococcus aureus [5]) | inhibition (Staphylococcus aureus [6])
1 | Cc1cc(N2CCOCC2)n2ncc(-c3ccc(F)cc3)c2n1 | > 128 | 0.03125 | 0.125 | > 32 | 0.156 | –
2 | CCN(CC)CCOc1ccc(/C(=C(/Cl)c2ccccc2)c2ccccc2)cc1 [ENCLOMIPHENE] | 16 | 0.25 | 0.063 | 256 | 0.313 | –
3 | Cc1cc(N2CCCCCCC2)n2ncc(-c3ccc(F)cc3)c2n1 | > 128 | 0.0312 | 0.0312 | > 32 | 0.0625 | –
4 | CCc1cc(N2CCCCCCC2)n2ncc(-c3ccc(F)cc3)c2n1 | > 128 | 0.125 | 0.0625 | > 32 | 0.1875 | –
5 | Cc1cc(N2CCCCCC2)n2ncc(-c3cccc(F)c3)c2n1 | > 128 | 0.0625 | 0.0312 | > 32 | 0.0937 | –
6 | CCCc1cc(N2CCCCCC2)n2ncc(-c3ccc(F)cc3)c2n1 | > 128 | 0.0312 | 0.0312 | > 32 | 0.0625 | –
7 | CCc1cc(N2CCCCCC2)n2ncc(-c3ccc(F)cc3)c2n1 | > 128 | 0.0312 | 0.0156 | > 32 | 0.0468 | –
8 | Cc1cc(N2CCCCCC2)n2ncc(-c3ccc(F)cc3)c2n1 | > 128 | 0.0625 | 0.0156 | > 32 | 0.0781 | Active
